Measurements from patent US4178442A, “Novel cinnamoyles piperazines and homopiperazines, the method of preparing them and their application in therapeutics” (Delalande S. A., priority 1977, dated 1979).
Read-outs that look alike come from different tables or passages of the source.

Columns and labels:
anaesthetized dog = experiment: Antiangorous activity on anaesthetized dog: consumption of oxygen in the left ventricule and cardiac effort (KATZ's index); format: in vivo; settings: for inhibition in vivo at 0.625 mg/kg / inhibition in vivo at 2.3 mg/kg / inhibition in vivo at 2.5 mg/kg / inhibition in vivo at 1.02 mg/kg: Canis lupus familiaris, iv
Outline: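 Katz index taken as mean arterial pressure multiplied by ECG (D2) heart rate, and myocardial O2 use as coronary sinus flow via modified Morawitz cannula times coronary arteriovenous O2 difference. Animals: pentobarbital-anaesthetized dogs (30 mg/kg i.v.), test compounds infused slowly intravenously.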

in vivo = settings: for mortality: read-out: Toxicity (Mortality); for LD50: read-out: Toxicity: LD50
Text: *LD50 or percentage of mortality which is given between brackets

[1] = 0.625 mg/kg i.v. slow perfusion
[2] = 0.625 mg/kg i.v. slow perfusion, read-out: Diminution in consumption of O2
[3] = 0.625 mg/kg i.v. slow perfusion, read-out: Diminution in the cardiac effort (IK)
[4] = 2.3 mg/kg i.v. slow perfusion, read-out: Diminution in consumption of O2
[5] = 2.3 mg/kg i.v. slow perfusion, read-out: Diminution in the cardiac effort (IK)
[6] = 2.5 mg/kg i.v. slow perfusion, read-out: Diminution in consumption of O2
[7] = 2.5 mg/kg i.v. slow perfusion, read-out: Diminution in the cardiac effort (IK)

Compound | LD50 (in vivo; iv) | Diminution in consumption of O2: in time (anaesthetized dog; 2.3 mg/kg i.v. slow perfusion) | Diminution in the cardiac effort (IK): in time (anaesthetized dog; 2.3 mg/kg i.v. slow perfusion) | inhibition in vivo at 2.3 mg/kg (anaesthetized dog; [4]) | inhibition in vivo at 2.3 mg/kg (anaesthetized dog; [5]) | Diminution in consumption of O2: in time (anaesthetized dog; 2.5 mg/kg i.v. slow perfusion) | Diminution in the cardiac effort (IK): in time (anaesthetized dog; 2.5 mg/kg i.v. slow perfusion) | inhibition in vivo at 2.5 mg/kg (anaesthetized dog; [6]) | inhibition in vivo at 2.5 mg/kg (anaesthetized dog; [7]) | also measured
COc1cc(/C=C/C(=O)N2CCN(CC(O)COc3ccc(NC(=O)C4CCCCC4)c4c3OCCO4)CC2)cc(OC)c1OC (stereo not shown) [770 533] | – | – | – | – | – | – | – | – | – | Diminution in consumption of O2: in time (anaesthetized dog; [1]): 25 min; Diminution in the cardiac effort (IK): in time (anaesthetized dog; [1]): 25 min; inhibition in vivo at 0.625 mg/kg (anaesthetized dog; [2]): 30%; inhibition in vivo at 0.625 mg/kg (anaesthetized dog; [3]): 28%; mortality (in vivo; po, p.o.: 2000 mg/kg): 10%
CCOC(=O)Nc1ccc(OCC(O)CN2CCN(C(=O)/C=C/c3cc(OC)c(OC)c(OC)c3)CC2)c2c1OCCO2 (stereo not shown) [770 525] | 325 mg/kg | – | – | – | – | – | – | – | – | Diminution in consumption of O2: in time (anaesthetized dog; [1]): 60 min; Diminution in the cardiac effort (IK): in time (anaesthetized dog; [1]): 60 min; inhibition in vivo at 0.625 mg/kg (anaesthetized dog; [2]): 66%; inhibition in vivo at 0.625 mg/kg (anaesthetized dog; [3]): 43%
COc1cccc(SCC(O)CN2CCN(C(=O)/C=C/c3cc(OC)c(OC)c(OC)c3)CC2)c1 (stereo not shown) [770 112] | 224 mg/kg | 23 min | 15 min | 34% | 7% | – | – | – | – | –
COc1cc(/C=C/C(=O)N2CCN(CC(O)COc3ccc([N+](=O)[O-])cc3Cl)CC2)cc(OC)c1OC (stereo not shown) [771 124] | 270 mg/kg | – | – | – | – | 15 min | 23 min | 34% | 13% | –
CCC(=O)c1ccc(OCC(O)CN2CCN(C(=O)/C=C/c3cc(OC)c(OC)c(OC)c3)CC2)cc1 (stereo not shown) [770 854] | – | – | – | – | – | 40 min | 40 min | 41% | 18% | mortality (in vivo; iv, 300 mg/kg i.v.): 20%
COc1cc(/C=C/C(=O)N2CCN(CC(O)COc3ccc(C)c4c3OCCO4)CC2)cc(OC)c1OC (stereo not shown) [760 847] | – | – | – | – | – | 60 min | – | 47% | 14% | mortality (in vivo; iv, 169 mg/kg i.v.): 20%
COc1cc(/C=C/C(=O)N2CCN(CC(O)COc3cc(C(C)=O)cc4c3OCCO4)CC2)cc(OC)c1OC (stereo not shown) [770 590] | 290 mg/kg | – | – | – | – | 45 min | 45 min | 60% | 33% | –
COc1cc(/C=C/C(=O)N2CCN(CC(O)COc3ccc([N+](=O)[O-])cc3)CC2)cc(OC)c1OC (stereo not shown) [760 538] | – | 15 min | 30 min | 48% | 37% | – | – | – | – | mortality (in vivo; iv, 185 mg/kg i.v.): 10%
CC(=O)c1ccc(OCC(O)CN2CCN(C(=O)/C=C/c3ccc(F)cc3)CC2)c2c1OCCO2 (stereo not shown) [770 199] | 328 mg/kg | – | – | – | – | – | – | – | – | Diminution in consumption of O2: in time (anaesthetized dog; 1.02 mg/kg i.v. slow perfusion): 15 min; Diminution in the cardiac effort (IK): in time (anaesthetized dog; 1.02 mg/kg i.v. slow perfusion): 15 min; inhibition in vivo at 1.02 mg/kg (anaesthetized dog; 1.02 mg/kg i.v. slow perfusion, read-out: Diminution in consumption of O2): 29%; inhibition in vivo at 1.02 mg/kg (anaesthetized dog; 1.02 mg/kg i.v. slow perfusion, read-out: Diminution in the cardiac effort (IK)): 5%
COc1cc(/C=C/C(=O)N2CCN(CC(O)COc3ccccc3NC(C)=O)CC2)cc(OC)c1OC (stereo not shown) [770 738] | – | – | – | – | – | 45 min | 45 min | 63% | 48% | mortality (in vivo; iv, 400 mg/kg i.v.): 40%
COc1cc(/C=C/C(=O)N2CCN(CC(O)COc3ccccc3Cl)CC2)cc(OC)c1OC (stereo not shown) [760 520] | 157 mg/kg | 40 min | 30 min | 45% | 13% | – | – | – | – | –
COc1cc(/C=C/C(=O)N2CCN(CC(O)COc3cccc(C#N)c3)CC2)cc(OC)c1OC (stereo not shown) [760 784] | 372 mg/kg | 30 min | 30 min | 44% | 12% | – | – | – | – | –
COc1cc(/C=C/C(=O)N2CCN(CC(O)COc3ccc(NC(C)=O)c4c3CCCC4)CC2)cc(OC)c1OC (stereo not shown) [780 044] | – | – | – | – | – | 30 min | 15 min | 49% | 36% | mortality (in vivo; iv, 400 mg/kg i.v.): 10%
